# Measurements taken from patent US20220323536A1, “USE OF BETA-L-ASPARTYL-L-ARGININE ON SENESCENT SKIN” (SYMRISE AG, priority 2019, published 2022).
# What was measured:
# senescent fibroblasts [1] = assay: Reduction of mitochondrial ROS in senescent fibroblasts (in vitro study); format: cell-based
# Experimental: Using a fluorescent dye, the antioxidative potential of β-L-aspartyl-L-arginine with respect to mitochondrial reactive oxygen species (ROS) was quantified. Senescent cells were incubated with β-L-aspartyl-L-arginine for 24 hours. Subsequently, the treated and non-treated senescent cells as well as the treated and non-treated non-senescent cells were incubated with the fluorescent dye for 30 minutes at 37° C. After washing, a portion of the non-senescent cells was treated with the oxidative reference substance H2O2 (100 μM). The mitochondrial ROS production was measured immediately every 5 mins over a period of 60 minutes. A microtiter plate reader (Varioskan-Thermo) was used as measuring device. During the kinetic measurement, the cells were further incubated at 37° C. Using fluorimetry, the antioxidative activity was measured in parallel with the viability of the cell. The experiments comprised a blank as well as a negative and a positive control. The positive control consists of […]. […] Senescent cells treated with resveratrol were used as reference for the comparison of the activity of β-L-aspartyl-L-arginine in the decrease of endogenous production of mitochondrial ROS in senescent cells. β-L-aspartyl-L-arginine was measured in a 4-fold measurement. […]
# senescent fibroblasts [2] = assay: Reduction of cell size in senescent fibroblasts (in vitro study); format: cell-based; conditions: amounts of more than 1.0 mM, vs untreated senescent fibroblasts; FIG. 3
# Experimental: (§1) Senescent cells were incubated with β-L-aspartyl-L-arginine. Cell size and nuclear size were measured while cell density reflects the viability. […] See example 4 for the details of experimental procedure.
# (§2) The cells were treated with β-L-aspartyl-L-arginine for 5 days. The cell images were taken after incubation. In order to label the nuclear and mitochondrial DNA, the cells were incubated with a fluorescent dye for 30 minutes. After removal of the dye, the images were taken with an epifluorescence microscope. Image analysis was performed in a 3-fold determination. Sampling 10 pictures per experimental condition or repetition, respectively.
# (§3) Data collection: The images were taken with a Zeiss axioplan microscope. Image analysis was performed with a software developed by ICDD.
# (§4) Data interpretation: The following data was collected: average cell size, mtDNA content, mitochondrial density, mitochondrial biogenesis, mitochondrial mass and cell nucelus size. The average cell number per field was used as control of cell viability for each experimental condition. The effect of active substances was also given as protective effect in comparison to non-treated cells. The effect of the positive control was included for comparison.
# senescent fibroblasts [3] = assay: Reduction of nucleus to cell size (N/C) ratio in senescent fibroblasts (in vitro study); format: cell-based; conditions: vs untreated senescent fibroblasts; FIG. 4
# Experimental: as §1, §2, §3, §4
# senescent fibroblasts [4] = assay: Reduction of mitochondrial DNA (mtDNA) in senescent fibroblasts (in vitro study); format: cell-based; conditions: 5 days treatment; FIG. 5
# Experimental: Disruptions of the nuclear and mitochondrial DNA were studied, analyzed by detecting nucleus fragments, the mitochondrial DNA content, the mitochondrial mass and the average cell density, the latter as representation of viability.
# as §2, §3, §4
# human skin explants [5] = assay: Reduction of ROS score after UVA irradiation on human skin explants (ex vivo study); format: cell-based; conditions: topical, 18 h incubation, vs untreated UV irradiated skin, FIG. 6
# Text: Cultivation of skin models: The skin was cut into about 8×3 mm large pieces (diameter×layer thickness of the models) and cultivated until the planned end of the experiment. Per treatment, six models each were used. The skin models were cultivated as air-liquid-interface cultures in a perforated stainless steel ring with contact to the culture medium (modified Williams 'E Medium) until the desired endpoint.
# Treatment: Test substances and controls were applied topically. To this end, the skin models were carefully cleaned with a cotton pad. Subsequently, 4 μL of each test substance or the control, respectively, were applied to the models and covered with a membrane filter (diameter=6 mm).
# The skin models were incubated for 18 h with test substance and positive control, respectively. […]
# UV-irradiation: The used sun simulator was a BIO-SUN-system from the company Vilber Lourmat. […] The UV-light emission is constantly monitored and the system stops automatically when the pre-set energy quantity is reached. […]
# Of each skin model, two samples were used for image capture with the fluorescence analysis. Each picture was analyzed by determining the fluorescence using Image-J analysis software (NIH, USA). The measured values were normalized over the size of the selected surface.
# Statistics: For each treatment of the skin models, the averages of the quantitative data was determined. […]
# fibronectin = assay: Stimulation of fibronectin proteins in the dermis (ex vivo study); format: cell-based; conditions: 4 μl topically every day during 6 days, vs untreated skin; FIG. 7
# Experimental: (§5) 4 μl of β-L-aspartyl-L-arginine were applied on the skin every day during 6 days of treatment at 37° C., 5% CO2 and 100% humidity. 12 skin cuts were immunohistochemically stained with selected antibodies. The papillary dermis was selected for the analysis because it is the part of the dermis, which changes the most in reaction to a previous treatment.
# (§6) The area to be analyzed was carefully selected while it was made sure that irregular structures such as blood vessels, sweat glands or hair follicles were avoided.
# (§7) For the assessment of the results, both, the color intensity and the color distribution were measured using Image-J analysis software (NIH, USA)—thus a semi-quantitative assessment was possible.
# collagen Typ III = assay: Stimulation of collagen Type III (ex vivo study); format: cell-based; conditions: vs untreated skin; FIG. 12
# Experimental: as §5, §6, §7
# [6] = Reduction of wrinkle intensity (clinical study); format: in vivo, human
# Experimental: (§8) The study was conducted with 26 female volunteers of age 53 +/−3 years. The application was done twice daily for two months. On one side of the face, the product is applied, on the other side the placebo.
# Imaging: The evaluation is based on high-resolution digital photography under controlled conditions. Pictures were taken at the start of the study, after 28 days and after 56 days of product application.
# The subjects were positioned in front of the optical arrangement and the face was photographed as portrait or close-up. The persons were photographed seated at controlled lighting. The conditions were kept constant during all photographs to ensure comparability.
# Reduction of wrinkles and lines: The assessment of wrinkles and lines was done in a limited area around the eye of the subject. The intensity of the wrinkles and lines was measured as parameter R. The larger the value for R, the more pronounced are the wrinkles and lines. The relative reduction of wrinkles is calculated according to the following formula:
# R%=100(Ri−RF)/Ri(R=wrinkle intensity, i=initial; f=final)
# Data analysis and interpretation: For data analysis the following software packages were used: […]
# human skin explants [7] = assay: Protection against carbonylation of proteins (ex vivo study); format: cell-based; conditions: UV stimulated skin treated with 0.2% and 0.5%, vs untreated UV stimulated skin; FIG. 9
# Experimental: Detection of carbonylation: After removing the fatty and connective tissue, the frozen skin samples are weighed and cut. The skin pieces of the tested samples are combined and homogenized in a cold extraction buffer. Cell lysates are collected by centrifugation.
# The measurement of the carbonylated protein is performed with the “OxyBlot Protein_Oxidation Kit by Millipore”, (#S7150) according to the protocol of the producer. Only the protein bands of a size between 50 kDa and 150 kDa were taken into account for the calculation. The obtained amount of carbonylated protein is normalized with the actin band (which is constant) and given with respect to the non-treated sample.
# [8] = Improvement of skin firmness and elasticity (clinical study, cutometer); format: in vivo, human
# Experimental: as §8
# The method of measurement relies on suction. A vacuum is created in the gauge head of the cutometer, which sucks the skin into the measuring device. An optical arrangement, consisting of a light source and a light detector, measures the light intensity, which enters dependent on how much skin is sucked in. The resulting parameters are elasticity and skin firmness.
# Skin firmness represents the resistance, which the skin creates against the suction by the vacuum. Elasticity, is the time, which the skin needs to return to its original state.
# [9] = Solubility and stability of the powder; format: physicochemical
# [10] = after eight weeks, twice daily use of 0.1%
smiles,measurement,setting,value
N=C(N)NCCC[C@H](NC(=O)C[C@H](N)C(=O)O)C(=O)O [β-L-aspartyl-L-arginine],mitochondrial ROS (mtROS),"senescent fibroblasts [1]; 10 μM, 24 hours incubation, senescent cells vs non-treated senescent cells, FIG. 1",significant reduction of mitochondrial ROS
same,dosage dependence of the mtROS reduction effect,"senescent fibroblasts [1]; values with respect to untreated senescent cells = 100%, FIG. 2",Increasing amounts of β-L-aspartyl-L-arginine show a larger reduction
same,cell size of senescent fibroblasts,senescent fibroblasts [2],reduce cell size
same,nucleus to cell size ratio in senescent fibroblasts,senescent fibroblasts [3],reduced compared to untreated senescent fibroblasts
same,mtDNA in senescent cells,senescent fibroblasts [4],reduced by β-L-aspartyl-L-arginine to an amount comparable to young replicative cells
same,ROS score of UV irradiated skin (dermis),human skin explants [5],significantly reduces the ROS score
same,fibronectin production in the dermis,fibronectin,stimulate the fibronectin production
same,collagen Typ III production,collagen Typ III,stimulate the collagen Typ III production
same,volunteers with significant reduction of wrinkle intensity,[6]; [10],85%
same,reduction of wrinkle intensity compared to a placebo,"[6]; after eight weeks, twice daily use of 0.1%, 26 female volunteers",6.8%
same,wrinkles and fine lines on crow feet,"[6]; four weeks of twice daily use of 0.1%, FIG. 8",visibly smoothes wrinkles and fine lines
same,formation of carbonylated proteins,human skin explants [7],prevent the formation of carbonylated proteins
same,enhancement of skin elasticity compared to the placebo,[8]; [10],+8.5%
same,enhancement of skin firmness compared to the placebo,[8]; [10],+10.1%
same,volunteers with significant enhancement of skin elasticity,[8]; [10],100%
same,volunteers with significant enhancement of skin firmness,[8]; [10],92%
same,skin firmness,"[8]; four weeks of twice daily use of 0.1%, FIG. 10",visibly improves skin firmness
same,skin elasticity,"[8]; four weeks of twice daily use of 0.1%, FIG. 11",visibly improves skin elasticity
same,stability,"[9]; pH from 5 to 9, up to 50° C.",stable at a pH from 5 to 9 at up to 50 °C
same,water solubility,"[9]; white, odorless powder",water soluble
